According to US7482008B1, “Human T cell reactive feline protein (TRFP) isolated from house dust and uses therefor” (Merck Patent GmbH, priority 1989, dated 2009):

How the values were obtained:
[1] = tested on: Patient 155 TRFP secondary primed T cells; assay: In vitro induction of T cell non-responsiveness, then proliferation on antigenic challenge; format: cell-based, human; settings: label = tolerance treatment
Description: Patient 155 TRFP secondary primed T cells (2.5×10^6) were rested and cultured with (2.5×10^6) irradiated autologous Epstein Barr Virus transformed B cells (EBV) in 1 ml of complete RPMI with 10% AB serum in 12×75 mm polypropylene snap cap tubes and increasing amounts of antigen over 5 consecutive days. The T cell cultures were exposed to 5 μg/ml purified native TRFP on day 0 and 5 μg/ml, 10 μg/ml, 10 μg/ml and 20 μg/ml thereafter. The peptide treated cultures were exposed to 1 μg/ml peptide on day 0 and 1 μg/ml, 1 μg/ml, 2 μg/ml and 5 μg/ml thereafter. In addition, 0.5 ml of fresh media was replaced on day 2. The cells were then washed and set up for a proliferation assay with 2×10^4 T cells and 2×10^4 irradiated (2500 Rad) autologous EBV and various doses of antigen. T cell proliferation was measured as incorporation of tritiated thymidine at day 9.

human IgE = assay: ELISA of human IgE binding, plasma from patient #669; settings: patient #669 plasma
Description: Corning assay plates (#25882-96) were coated with 10 μg/ml of each coating antigen (i.e., TRFP, chain 1 (recombinant chain 1 of TRFP), chain 2 (recombinant chain 2 of TRFP), peptide XYZ, peptide XZY, peptide YXZ, peptide YZX, peptide ZXY and peptide ZYX) listed in FIG. 34 at 50 μl/well and incubated overnight at 4° C. The coating antigens were removed and the wells were blocked with 0.5% gelatin in PBS, 200 μl/well for 2 hours at room temperature. Plasma from patient #669 was serially diluted with PBS-Tween 20 (PBS with 0.05% nonionic detergent Tween-20 Sigma, St. Louis Mo.) and 100 μl/well was added and incubated overnight at 4° C. (plasma dilutions are tested in duplicate). The second antibody (biotinylated goat anti-Human IgE, 1:1000, Kirkegaard & Perry Laboratories Inc. Gaithersburg, Md.), was added at 100 μl/well for one hour at room temperature. This solution was removed and streptavidin-HRPO, 1:10,000 (Southern Biotechnology Associates, Inc., Birmingham, Ala.) was then added at 100 μl/well for one hour at room temperature (all wells were washed three times with PBS-Tween between each incubation step). TMB Membrane Peroxidase Substrate system (Kirkegaard & Perry Laboratories) was freshly mixed, and added at 100 μl/well. The color was allowed to develop for 2-5 minutes. The reaction was stopped by the addition of 100 μl/well of 1M phosphoric acid. Plates were read on a Microplate EL 310 Autoreader (Biotek Instruments, Winooski, Vt.) with a 450 nm filter. The absorbance levels of duplicate wells were averaged.

B6CBAF1 mice = assay: Murine T cell response after immunization with peptide YZX, IL-2 production (CTLL-2); format: in vivo, mouse; settings: mice immunized with 100 μg peptide YZX in CFA; label = antigen in culture
Description: 10 B6CBAF1 mice were immunized subcutaneously at the base of the tail and in the thigh region with 100 μg of peptide YZX in complete Freund's adjuvant. After 10 days, the inguinal, paraaortic, and popliteal nodes of the immunized mice were removed and pooled. The lymph node cells were suspended in cold RPMI 1640 with 1% fetal bovine serum (FBS) by passage through stainless steel mesh. The cells were washed 2 times with cold RPMI-1640 containing 1% FBS and maintained at 4° C.
The lymph node cells were plated at 4×10^6 cells/ml in RPMI 1640 with 10% FBS, 250 μg/ml penicillin G, 100 μg/ml streptomycin, and 5×10^−5 M 2-mercaptoethanol. […] After 24 hours, 50 μl of supernatant was removed from each culture and frozen overnight to eliminate live cell carryover. The supernatant was warmed to […] and washed. CTLL-2 indicator cells (ATCC # T1B 214) were added (5×10^3 cells/well). This indicator cell line requires IL-2 for continued growth. After 24 hours, H^3-thymidine (1 μCi/well) was added and the cells were further incubated for 4 hours. The plates were frozen and thawed, harvested on a Tomtec 96 well harvester (Tomtec, Orange, Conn.), and counted on a Betaplate beta counter (Pharmacia, Gaithersburg, Md.).

[2] = tested on: T cells from cat allergic patients; assay: T cell proliferation of TRFP-primed T cells from cat allergic patients (tritiated thymidine), Example 5 Part A; format: cell-based, human
Description: Peripheral blood mononuclear cells (PBMC) were purified from 60 ml of heparinized blood from cat allergic patients. PBMC were subsequently treated as described below, although in individual cases, the length of time of cultivation with IL-2 and/or IL-4 and the specific peptides used for stimulation varied.
10 ml of PBMC from patient 131 at 10^6 /ml were cultured at 37° C. for 7 days in the presence of 5 μg purified TRFP/ml RPMI-1640 supplemented with 5% pooled human AB serum. Viable cells were purified by Ficoll-Hypaque centrifugation and cultured for three weeks at 5 units recombinant human IL-2/ml and 5 units recombinant human IL-4/ml. The resting T cells were then restimulated (secondary) with 5 μg TRFP at 2×10^5/ml in the presence of irradiated (3500 Rads) autologous PBMC at a concentration of 5×10^5/ml for three days, purified by Ficoll-Hypaque centrifugation and grown in 5 units IL-2 and 5 units IL-4/ml for two weeks. For assay, 2×10^4 resting secondary T cells were restimulated (tertiary) in the presence of 5×10^4 irradiated (3500 Rads) autologous PBMC or 2×10^4 transformed B cells (20,000 Rads) with various concentrations of allergens or their fragments in a volume of 200 microliters in a 96-well round bottom assay plates for 3 days. Each well then received 1 μCurie tritiated (methyl) thymidine for 16 hours. The counts incorporated were collected onto glass fiber filters and processed for liquid scintillation counting.
Antigens used: T cell reactive feline protein (TRFP), Hollister-Stier cat epithelium skin test reagent (CST), IPC ragweed pollen extract (pollen), and synthetic peptides derived from TRFP protein sequence (See FIGS. 6 and 7). Positive T cell proliferation is for these experiments was considered to be greater than 2.5 times the media control (T cells and antigen presenting cells alone).
Alternatively, PBMC were treated as follows: The primary stimulated cells were cultured in IL-2/IL-4 for two weeks. The resting T cells derived from this culture were tested in a secondary assay with some, but not all, of the above allergens. […] This type of epitope analysis has allowed the definition of T cell epitopes present in TRFP.

Substance	T cell proliferation following antigenic challenge ([1]; challenge with Fel 8-3)	T cell proliferation following antigenic challenge ([1]; challenge with Ragweed Peptide)	T cell proliferation following antigenic challenge ([1]; challenge with TRFP)	T cell proliferation following antigenic challenge ([1]; no antigenic challenge (—))	IgE binding, ELISA (human IgE)	T cell response of pooled lymph node cells (IL-2 production) (B6CBAF1 mice)	other results
TRFP: human T cell reactive feline protein affinity purified from house dust; two covalently linked chains	36,030 cmp	6,670 cmp	33,160 cmp	2,190 cmp	high level of IgE binding	–	–
peptide X: amino acid residues 7-30 from chain 1 of TRFP (SEQ. ID. NO: 17); Table 2 lists Fel 8-3 as 7-33 (KRDVDLFLTGTPDEYVEQVAQYKALPV)	3,850 cmp	5,130 cmp	12,320 cmp	1,270 cmp	–	significant response	T cell stimulatory activity ([2]; summary in words of Tables 2 and 3): powerful activity
peptide Y: amino acid residues 29-55 from chain 1 of TRFP (SEQ. ID. NO: 18) (KALPVVLENARILKNCVDAKMTEEDKE)	–	–	–	–	–	significant response	–
recombinant chain 1: recombinant TRFP chain 1 expressed in E. coli	–	–	–	–	somewhat lower binding	–	–
NARILKNCVDAKMTEEDKE [Fel 4, TRFP chain 1 amino acids 37-55]	–	–	–	–	–	–	PI ([2]; Table 2, chain #1 TRFP peptides, average SI of responding patients multiplied by percent of patients with positive response (SI >2.5)): 601; SI ([2]; Table 2, chain #1 TRFP peptides, average cpm with antigen divided by cpm of T cells and APC alone, responding patients): 7.7
